Results taken from EPA's ToxValDB 9.5 (doi:10.2903/j.efsa.2019.5842).
≈ marks a conversion by molar mass, not a printed value.

Assays:
Oncorhynchus mykiss [1] = experiment: LC10; higher = less toxic; conditions: chronic/long-term; mortality
Oryctolagus sp. = conditions: reproduction developmental; body weight
Daphnia magna = conditions: chronic/long-term; duration: 21 days; reproduction
Oncorhynchus mykiss [2] = conditions: acute; duration: 96 hours; mortality
Folsomia candida = conditions: chronic/long-term; duration: 28 days; reproduction
Apis mellifera = conditions: acute, mortality
Tagia sp. = conditions: chronic/long-term; duration: 56 days; reproduction
Hyalella azteca = conditions: chronic/long-term; duration: 42 days

For `CCCCN(CC)c1c([N+](=O)[O-])cc(C(F)(F)F)cc1[N+](=O)[O-]` [Benfluralin], which LC10 (Oncorhynchus mykiss [1]) is on record?
The LC10 was 0.0013 µg/mL (≈ 0.00388 µM).

What about the NOAEL (Oryctolagus sp.) of the same compound?
The NOAEL was 50 mg/kg-day.

What about the LD50 (Rattus norvegicus; acute, oral, mortality) of the same compound?
Its LD50 is greater than 5000 mg/kg-day.

What about the NOAEL (Rattus norvegicus; chronic, duration: 2 years, histopathology: nonneoplastic) of the same compound?
Its NOAEL is 0.5 mg/kg-day.

And the NOAEL (Rattus norvegicus; reproduction developmental, body weight)?
Its NOAEL is 5.5 mg/kg-day.

And the NOEC (Daphnia magna)?
The NOEC was 0.046 mg/L.

What about the LC50 (Oncorhynchus mykiss [2]) of the same compound?
Its LC50 is 0.081 µg/mL (≈ 0.242 µM).

And the NOEC (Folsomia candida)?
The NOEC was 5.5 mg/kg.

And the LD50 (Colinus virginianus; acute, oral, mortality)?
Its LD50 is greater than 2000 mg/kg-day.

What about the NOEL (Colinus virginianus; reproduction developmental) of the same compound?
The NOEL was 6.7 mg/kg-day.

And the LD50 (Apis mellifera; dermal)?
The LD50 was greater than 100 µg/piece.

What about the LD50 (Apis mellifera; oral, unspecified) of the same compound?
Its LD50 is greater than 111 µg/piece.

And the NOEC (Tagia sp.)?
Its NOEC is 15.4 mg/kg.

What about the NOEC (Hyalella azteca) of the same compound?
The NOEC was 83 mg/kg.
